From ChEMBL document CHEMBL1201862, “PubChem BioAssay data set” (2004)
Activity calls are given as the source filed them.

Assays:
HeLa = assay: ATP-based viability loss in HeLa cells – cell-based, CellTiter-Glo luminescence, cherry-pick samples, cytotoxicity control for MITF activator project, dose response (AID 540259); assay type: functional; conditions: Homo sapiens
Escherichia coli [1] = assay: microbe, parasite or virus in culture
Escherichia coli [2] = assay: microbe, parasite or virus in culture; remark: listed apart in the source
[3] = Luminescence Cell-Based Dose Response HTS to Identify Activators of Luciferase Translation or Activity in H4 […] Cells. [Related pubchem assays: 1829 (Project Summary), 1814 (Primary HTS)]; assay type: functional
[4] = molecular target: T1, Oxysterols receptor LXR-beta (Homo sapiens, UniProt P55055); assay type: functional, cell-based;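 also: agonist activity at LXR measured by a cell-based luminescence readout across a dose range, run as a counterscreen for daf-12 agonists; HEK293 cells with Gal4-LXR fusion and GAL4-driven luciferase reporter; potency for activation of Gal4-LXR reporter so compounds are agonists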
T1 sequence (P55055 whole entry): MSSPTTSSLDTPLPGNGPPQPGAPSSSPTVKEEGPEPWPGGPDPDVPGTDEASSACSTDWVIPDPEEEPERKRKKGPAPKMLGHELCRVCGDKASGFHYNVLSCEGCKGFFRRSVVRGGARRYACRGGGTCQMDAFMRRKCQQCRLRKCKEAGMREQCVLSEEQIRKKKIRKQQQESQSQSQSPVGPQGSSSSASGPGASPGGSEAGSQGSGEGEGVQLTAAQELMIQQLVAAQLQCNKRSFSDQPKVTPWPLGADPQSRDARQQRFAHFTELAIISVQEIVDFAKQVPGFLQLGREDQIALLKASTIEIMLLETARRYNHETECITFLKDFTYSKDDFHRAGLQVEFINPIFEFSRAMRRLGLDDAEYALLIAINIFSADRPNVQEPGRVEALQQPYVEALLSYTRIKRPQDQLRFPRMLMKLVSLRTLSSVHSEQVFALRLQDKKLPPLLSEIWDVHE

[5] = microbe, parasite or virus in culture; assay type: functional; conditions: Mycobacterium tuberculosis

Compound	AC50 (HeLa)	AC50 (Escherichia coli [1])	AC50 (Escherichia coli [2])	EC50 [3]	EC50 [4]	CC50 [5]
c1ccc2nc(-c3nccs3)ccc2c1	57.5 µM (active)	–	–	–	–	–
COc1ccc(/C=C2\SC(=O)N(CCNC(=O)C3CC4C=CC3C4)C2=O)cc1 (stereo not drawn)	–	23.7 µM (active)	> 380 µM (inactive)	0.164 µM (active)	> 67.5 µM (inactive)	–
CCCc1ccc2oc(C(=O)N(C)Cc3nccs3)c(C)c2c1	–	31.7 µM (active)	> 380 µM (inactive)	–	–	21.8 µM (active)
